The experiment deals with T1, Soluble mouse EPOR chimera proteins (erythropoietin receptor) (Mus musculus, UniProt P14753).
T1 construct: Soluble mouse EPOR chimera proteins; purchased R&D Systems
T1 sequence (P14753 25-249 limits assumed): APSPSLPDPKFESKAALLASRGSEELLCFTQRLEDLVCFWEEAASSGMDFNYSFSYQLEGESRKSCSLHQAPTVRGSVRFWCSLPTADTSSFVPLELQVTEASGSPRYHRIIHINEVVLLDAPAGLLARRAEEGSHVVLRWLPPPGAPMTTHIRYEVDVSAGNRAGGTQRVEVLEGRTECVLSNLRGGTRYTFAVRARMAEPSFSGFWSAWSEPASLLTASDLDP
Description: Surface plasmon resonance (SPR) binding affinity to erythropoietin receptor. As to conditions: Table 8; for Ka: association rate. An excerpt:
The SPR technique is to measure interactions between biomolecules in real-time by using an optical principle without specific labeling, and is a system analyzing affinity between two molecules and kinetics, i.e., an association rate (Ka) and a dissociation rate (Kd). In detail, real-time SPR analysis may be performed using Reichert SPR Biosensor SR […] instrument (Reichert Inc., NY, USA). Soluble mouse EPOR chimera proteins (R&D Systems, Minneapolis, Minn., USA) were covalently linked to a carboxymethylated dextran matrix-coated chip (BR-1005-39, Pharmacia Biosensor AB) by an amine coupling procedure using an amine coupling kit (BR-1000-50, GE Healthcare, USA) in accordance with manufacturer's instructions. Each 5 pM, 2.5 pM, and 1.25 pM of the peptide samples of the present disclosure and scrambled peptides were applied at a flow rate of 5 μl/minute, and the experiments were independently performed in duplicate. For signal normalization, DMSO was applied at a flow rate of 5 μl/minute. After each binding cycle, the sensor chip was regenerated by injecting 25 mM of acetic acid at a flow rate of 20 μl/minute.

Peptide text beside a SMILES is read from it.

This is an account of results in patent US10808018B2, “Erythropoietin-derived peptides and methods of protecting cells from oxidative damage induced by reactive oxygen species” (SYLUS CO., LTD., priority 2017, dated 2020).

With `CC(C)[C@H](NC(=O)[C@H](CCCCN)NC(=O)[C@@H](N)[C@@H](C)O)C(=O)N[C@@H](CC(N)=O)C(=O)N[C@@H](Cc1ccccc1)C(=O)N[C@@H](Cc1ccc(O)cc1)C(=O)N[C@@H](C)C(=O)N[C@@H](Cc1c[nH]c2ccccc12)C(=O)N[C@@H](CCCCN)C(=O)N[C@@H](CCCNC(=N)N)C(=O)O` [ML3] (H-TKVNFYAWKR-OH; N-terminus and C-terminus assumed), the Ka is 2.05 × 10^2 and the “dissociation rate constant (koff)” value was 3 × 10^−3.
`CC[C@H](C)[C@H](NC(=O)[C@H](C)NC(=O)[C@H](CCC(=O)O)NC(=O)[C@H](CCCCN)NC(=O)[C@H](CCC(N)=O)NC(=O)[C@H](C)NC(=O)CNC(=O)[C@H](CC(C)C)NC(=O)[C@H](C)NC(=O)[C@H](CCCNC(=N)N)NC(=O)[C@H](CC(C)C)NC(=O)[C@@H](NC(=O)[C@H](Cc1c[nH]cn1)NC(=O)[C@@H](NC(=O)[C@H](CC(C)C)NC(=O)[C@@H](NC(=O)[C@H](CCCCN)NC(=O)[C@H](CC(C)C)NC(=O)CNC(=O)[C@H](CO)NC(=O)[C@@H](NC(=O)[C@H](C)NC(=O)[C@H](CCCCN)NC(=O)[C@@H](N)CCCCN)C(C)C)[C@@H](C)O)[C@@H](C)O)[C@@H](C)CC)C(=O)O` [ML4-1] (H-KKAVSGLKTLTHILRALGAQKEAI-OH; N-terminus and C-terminus assumed): the Ka is 4.10 × 10^2 and the “dissociation rate constant (koff)” value is 1.20 × 10^−2.
Consider `CC[C@H](C)[C@H](NC(=O)[C@H](C)NC(=O)[C@H](CCC(=O)O)NC(=O)[C@H](CCCCN)NC(=O)[C@H](CCC(N)=O)NC(=O)[C@H](C)NC(=O)CNC(=O)[C@H](CC(C)C)NC(=O)[C@H](C)NC(=O)[C@H](CCCNC(=N)N)NC(=O)[C@H](CC(C)C)NC(=O)[C@H](CC(C)C)NC(=O)[C@@H](NC(=O)[C@@H](NC(=O)[C@H](CC(C)C)NC(=O)[C@H](CO)NC(=O)[C@H](CCCNC(=N)N)NC(=O)[C@H](CC(C)C)NC(=O)CNC(=O)[C@H](CO)NC(=O)[C@@H](NC(=O)[C@H](C)NC(=O)[C@H](CCCCN)NC(=O)[C@@H](N)CC(=O)O)C(C)C)[C@@H](C)O)[C@@H](C)O)C(=O)O` [ML4] (H-DKAVSGLRSLTTLLRALGAQKEAI-OH; N-terminus and C-terminus assumed), for which the Ka is recorded as 2.2 × 10^2 and the “dissociation rate constant (koff)” value is recorded as 2.2 × 10^−3.
Taken in the same sequence, the figures for `CC(C)C[C@H](NC(=O)CNC(=O)[C@H](C)N)C(=O)N[C@@H](CCCNC(=N)N)C(=O)N[C@@H](CO)C(=O)N[C@@H](CCCNC(=N)N)C(=O)N[C@@H](C)C(=O)N[C@@H](Cc1c[nH]cn1)C(=O)N[C@@H](CC(C)C)C(=O)N[C@@H](CCCNC(=N)N)C(=O)N[C@@H](CCCNC(=N)N)C(=O)N[C@@H](C)C(=O)N[C@@H](CC(C)C)C(=O)N[C@@H](C)C(=O)O` [ML5-1] (H-AGLRSRAHLRRALA-OH; N-terminus and C-terminus assumed) were 4.42 × 10^2 and 3.46 × 10^−2.
On the same counts, the results for `CC(C)C[C@H](NC(=O)CNC(=O)[C@@H](N)CO)C(=O)N[C@@H](CCCNC(=N)N)C(=O)N[C@@H](CO)C(=O)N[C@@H](CC(C)C)C(=O)N[C@H](C(=O)N[C@H](C(=O)N[C@@H](CC(C)C)C(=O)N[C@@H](CC(C)C)C(=O)N[C@@H](CCCNC(=N)N)C(=O)N[C@@H](C)C(=O)N[C@@H](CC(C)C)C(=O)NCC(=O)O)[C@@H](C)O)[C@@H](C)O` [ML5] (H-SGLRSLTTLLRALG-OH; N-terminus and C-terminus assumed) are 3.04 × 10^2 and 0.1 × 10^−3.
On the same counts, the results for `CC[C@H](C)[C@H](NC(=O)[C@H](C)NC(=O)[C@H](CCC(=O)O)NC(=O)[C@H](CCCCN)NC(=O)[C@H](CCC(N)=O)NC(=O)[C@H](C)NC(=O)CNC(=O)[C@H](CC(C)C)NC(=O)[C@H](C)NC(=O)[C@H](CCCNC(=N)N)NC(=O)[C@H](CC(C)C)NC(=O)[C@H](CC(C)C)NC(=O)[C@H](CO)NC(=O)[C@@H](NC(=O)[C@H](CC(C)C)NC(=O)[C@H](CO)NC(=O)[C@H](CCCNC(=N)N)NC(=O)[C@H](CC(C)C)NC(=O)CNC(=O)[C@@H](N)CCCCN)[C@@H](C)CC)C(=O)O` [ML6-1] (H-KGLRSLISLLRALGAQKEAI-OH; N-terminus and C-terminus assumed) are 1.9 × 10^2 and 3 × 10^−2.
With `CC[C@H](C)[C@H](NC(=O)[C@H](C)NC(=O)[C@H](CCC(=O)O)NC(=O)[C@H](CCCCN)NC(=O)[C@H](CCC(N)=O)NC(=O)[C@H](C)NC(=O)CNC(=O)[C@H](CC(C)C)NC(=O)[C@H](C)NC(=O)[C@H](CCCNC(=N)N)NC(=O)[C@H](CC(C)C)NC(=O)[C@H](CC(C)C)NC(=O)[C@@H](NC(=O)[C@@H](NC(=O)[C@H](CC(C)C)NC(=O)[C@H](CO)NC(=O)[C@H](CCCNC(=N)N)NC(=O)[C@H](CC(C)C)NC(=O)CNC(=O)[C@@H](N)CO)[C@@H](C)O)[C@@H](C)O)C(=O)O` [ML6], the “dissociation rate constant (koff)” value is listed as 4.5 × 10^−2.
Consider `CC[C@H](C)[C@H](NC(=O)[C@H](CC(C)C)NC(=O)[C@@H](NC(=O)[C@@H](NC(=O)[C@H](CC(C)C)NC(=O)[C@@H](NC(=O)[C@H](CCCNC(=N)N)NC(=O)[C@H](CC(C)C)NC(=O)CNC(=O)[C@@H](NC(=O)[C@H](C)NC(=O)[C@H](C)NC(=O)[C@H](CCCCN)NC(=O)[C@H](CC(=O)O)NC(=O)[C@@H](NC(=O)[C@H](CCC(=O)O)NC(=O)[C@H](CC(C)C)NC(=O)[C@H](CC(=O)O)NC(=O)[C@H](CC(C)C)NC(=O)[C@H](C)NC(=O)[C@H](CCC(=O)O)NC(=O)[C@@H](N)CC(=O)O)C(C)C)[C@@H](C)O)[C@@H](C)O)[C@@H](C)O)[C@@H](C)O)C(=O)N[C@@H](CCCNC(=N)N)C(=O)N[C@@H](C)C(=O)N[C@@H](CC(C)C)C(=O)O` [ML7-1] (H-DEALDLEVDKAATGLRTLTTLIRAL-OH; N-terminus and C-terminus assumed), for which the Ka was 2.26 × 10^2 and the “dissociation rate constant (koff)” value is recorded as 1.44 × 10^−2.
With `CC(C)C[C@H](NC(=O)CNC(=O)[C@H](C)NC(=O)[C@@H](NC(=O)[C@H](C)NC(=O)[C@H](CCCCN)NC(=O)[C@@H](N)CC(N)=O)C(C)C)C(=O)N[C@@H](CCCNC(=N)N)C(=O)N[C@@H](CO)C(=O)N[C@@H](CC(C)C)C(=O)N[C@H](C(=O)N[C@H](C(=O)N[C@@H](CC(N)=O)C(=O)O)C(C)C)[C@@H](C)O` [ML8-1] (H-NKAVAGLRSLTVN-OH; N-terminus and C-terminus assumed), the “dissociation rate constant (koff)” value is 1.5 × 10^−1.
Take `CC(C)C[C@H](NC(=O)[C@H](C)NC(=O)[C@H](CCCNC(=N)N)NC(=O)[C@H](CC(C)C)NC(=O)[C@H](CC(C)C)NC(=O)[C@@H](NC(=O)[C@@H](NC(=O)[C@H](CC(C)C)NC(=O)[C@H](CO)NC(=O)[C@H](CCCNC(=N)N)NC(=O)[C@H](CC(C)C)NC(=O)CNC(=O)[C@H](CO)NC(=O)[C@@H](NC(=O)[C@H](C)NC(=O)[C@H](CCCCN)NC(=O)[C@@H](N)CC(=O)O)C(C)C)[C@@H](C)O)[C@@H](C)O)C(=O)O` [ML8] (H-DKAVSGLRSLTTLLRAL-OH; N-terminus and C-terminus assumed): the Ka was 1.8 × 10^2 and the “dissociation rate constant (koff)” value is on record as 0.8 × 10^−1.
